# From US20240016773A1, “COMPOSITIONS AND METHODS FOR DIAGNOSIS AND TREATMENT OF CONDITIONS RELATED TO AGING” (EPITRACKER, INC., priority 2018, published 2024)
# Key:
# [1] = test system: twelve different human primary cell systems mimicking various disease states; assay: BioMAP Diversity PLUS panel, twelve human primary cell systems (summary by disease); assay type: cell-based; design: key: x: Significantly reduced cell-based biomarkers relevant to specific diseases and conditions
# Source text: As a proof of concept, 14 compounds were selected from our compound library based on predicted efficacy in lowering inflammation in dolphins. Pure synthetic forms of these compounds were screened for cell-based activities (relevant to multiple aging-associated diseases and diseases that may impact longevity) using twelve different human primary cell systems mimicking various disease states (TABLE 4—description of primary human cell systems used to screen selected compounds in library).
# (§1) The Diversity PLUS panel allows test agent characterization in an unbiased way across a broad set of systems modeling various human disease states. These systems are designed to model complex human tissue and disease biology of the vasculature, skin, lung, and inflammatory tissues. Quantitative measurements of 148 biomarker activities across this broad panel, along with comparative analysis of biological activities from known bioactive agents, were used to predict and compare the efficacy and function of each selected compound at four concentrations (740 nm and 2.2, 6.7 and 20 μM).
# (§2) BioMAP systems are constructed with one or more primary cell types from healthy human donors, with stimuli (such as cytokines or growth factors) added to capture relevant signaling networks that naturally occur in human tissue or pathological conditions. Vascular biology is modeled in both a Th1 (3C system) and a Th2 (4H system) inflammatory environment, as well as in a Th1 inflammatory state specific to arterial smooth muscle cells (CASM3C system). Additional systems recapitulate aspects of the systemic immune response including monocyte-driven Th1 inflammation (LPS system) or T cell stimulation (SAg system), chronic Th1 inflammation driven by macrophage activation (lMphg system) and the T cell-dependent activation of B cells that occurs in germinal centers (BT system). The BE3C system (Th1) and the BF4T system (Th2) represent airway inflammation of the lung, while the MyoF system models myofibroblast-lung tissue remodeling. Lastly, skin biology is addressed in the KF3CT system modeling Th1 cutaneous inflammation and the HDF3CGF system modeling wound healing.
# (§3) Each test agent generates a signature BioMAP profile that is created from the changes in protein biomarker readouts within individual system environments. Biomarker readouts (7-17 per system) are selected for therapeutic and biological relevance, are predictive for disease outcomes or specific drug effects and are validated using agents with known mechanism of action (MoA). Each readout is measured quantitatively by immune-based methods that detect protein (e.g., ELISA) or functional assays that measure proliferation and viability. BioMAP readouts are diverse and include cell surface receptors, cytokines, chemokines, matrix molecules and enzymes. In total, the Diversity PLUS panel contains 148 biomarker readouts that capture biological changes that occur within the physiological context of the particular BioMAP system. Specific BioMAP activities have been correlated to in vivo biology, and multiparameter BioMAP profiles have been used to distinguish compounds based on MoA and target selectivity across diverse physiological systems.
# (§4) Activated BioMAP systems were incubated with each compound for 24 to 72 hours. Protein-based biomarkers from activated cell systems were measured and compared with non-treated control systems.
# [2] = test system: BE3C system: bronchial epithelial cells (IL-1β, IFNγ, TNFα); assay: BioMAP Diversity PLUS, BE3C system; assay type: cell-based, human
# Source text: as §1
# (§5) BioMAP systems are constructed with one or more primary cell types from healthy human donors, with stimuli (such as cytokines or growth factors) added to capture relevant signaling networks that naturally occur in human tissue or pathological conditions. Vascular biology is modeled in both a Th1 (3C system) and a Th2 (4H system) inflammatory environment, as well as in a Th1 inflammatory state specific to arterial smooth muscle cells (CASM3C system). […]
# as §3, with “Specific BioMAP activities have been correlated to in vivo biology, and multiparameter BioMAP profiles have been used to distinguish compounds based on MoA and target selectivity across diverse physiological systems.” left out
# as §4
# [3] = test system: /Mphg system: macrophages, venular endothelial cells (TLR2 ligand); assay: BioMAP Diversity PLUS, /Mphg system; assay type: cell-based, human; conditions: 20.0 μM
# Source text: (§6) The Diversity PLUS panel allows test agent characterization in an unbiased way across a broad set of systems modeling various human disease states. These systems are designed to model complex human tissue and disease biology of the vasculature, skin, lung, and inflammatory tissues. Quantitative measurements of 148 biomarker activities across this broad panel, along with comparative analysis of biological activities from known bioactive agents, were used to predict and compare the efficacy and function of each selected compound at four concentrations (740 nm and 2.2, 6.7 and 20 μM). […]
# (§7) Each test agent generates a signature BioMAP profile that is created from the changes in protein biomarker readouts within individual system environments. Biomarker readouts (7-17 per system) are selected for therapeutic and biological relevance, are predictive for disease outcomes or specific drug effects and are validated using agents with known mechanism of action (MoA). Each readout is measured quantitatively by immune-based methods that detect protein (e.g., ELISA) or functional assays that measure proliferation and viability. BioMAP readouts are diverse and include cell surface receptors, cytokines, chemokines, matrix molecules and enzymes. […]
# [4] = test system: HDF3CGF system: dermal fibroblasts (IFNγ, TNFα, IL-1β, EGF, bFGF, PDGF-BB); assay: BioMAP Diversity PLUS, HDF3CGF system; assay type: cell-based, human; conditions: HDF3CGF
# Source text: as §1, §2, §3, §4
# [5] = test system: BT system: peripheral blood mononuclear cells, B cells (α-IgM, TCR ligands); assay: BioMAP Diversity PLUS, BT system; assay type: cell-based, human
# Source text: as §1, §2, §3, §4
# [6] = test system: LPS system: venular endothelial cells, peripheral blood mononuclear cells (TLR4 ligand); assay: BioMAP Diversity PLUS, LPS system; assay type: cell-based, human
# Source text: as §1, §2
# as §7, with “enzymes. In total, the Diversity PLUS panel contains 148 biomarker readouts that capture biological changes that occur within the physiological context of the particular BioMAP system.” for “enzymes.”
# as §4
# [7] = test system: SAg system: venular endothelial cells, peripheral blood mononuclear cells (TCR ligands); assay: BioMAP Diversity PLUS, SAg system; assay type: cell-based, human
# Source text: as §1, §2, §3, §4
# [8] = test system: CASM3C system: coronary artery smooth muscle cells (IL-1β, TNFα, IFNγ); assay: BioMAP Diversity PLUS, CASM3C system; assay type: cell-based, human; conditions: 2.2 μM
# Source text: as §6, §7
# [9] = test system: BF4T system: bronchial epithelial cells, dermal fibroblasts (IL-4, TNF-α); assay: BioMAP Diversity PLUS, BF4T system; assay type: cell-based, human
# Source text: as §1, §5
# as §7, with “enzymes. In total, the Diversity PLUS panel contains 148 biomarker readouts that capture biological changes that occur within the physiological context of the particular BioMAP system.” for “enzymes.”
# as §4
structure (smiles),measurement,setting,value
C=CCCCCCCCCC(=O)O [10-undecanoate],Significantly reduced cell-based biomarkers relevant to: Allergy,[1]; Table 6,x
same,Significantly reduced cell-based biomarkers relevant to: Asthma,[1]; Table 6,x
same,Significantly reduced cell-based biomarkers relevant to: Autoimmunity,[1]; Table 6,x
same,Significantly reduced cell-based biomarkers relevant to: Hematological oncology,[1]; Table 6,x
same,Significantly reduced cell-based biomarkers relevant to: SLE,[1]; Table 6,x
same,Significantly reduced cell-based biomarkers relevant to: T-cell dependent B cell proliferation,[1]; Table 6,x
same,Significantly reduced cell-based biomarkers relevant to: Atherosclerosis,[1]; Table 7,x
same,Significantly reduced cell-based biomarkers relevant to: Chronic inflammation,[1]; Table 7,x
same,Significantly reduced cell-based biomarkers relevant to: Metabolic diseases,[1]; Table 7,x
same,Significantly reduced cell-based biomarkers relevant to: Organ transplantation,[1]; Table 7,x
same,Significantly reduced cell-based biomarkers relevant to: Psoriasis,[1]; Table 7,x
same,Significantly reduced cell-based biomarkers relevant to: Restenosis,[1]; Table 7,x
same,Significantly reduced cell-based biomarkers relevant to: Rheumatoid arthritis,[1]; Table 7,x
same,Significantly reduced cell-based biomarkers relevant to: Thl type inflammation,[1]; Table 7,x
same,Significantly reduced cell-based biomarkers relevant to: Crohn's disease,[1]; Table 8,x
same,Significantly reduced cell-based biomarkers relevant to: Fibrosis,[1]; Table 8,x
same,Significantly reduced cell-based biomarkers relevant to: Hematological oncology,[1]; Table 8,x
same,Significantly reduced cell-based biomarkers relevant to: Pulmonary responses to respiratory infections,[1]; Table 8,x
same,Significantly reduced cell-based biomarkers relevant to: Sarcoidosis,[1]; Table 8,x
same,Significantly reduced cell-based biomarkers relevant to: Stromal biology in tumors,[1]; Table 8,x
same,Significant log10 reduction vs nontreated controls: Tissue plasminogen activator (tPA),[2]; 2.2 μM,−0.08 log10
same,Significant log10 reduction vs nontreated controls: Tissue plasminogen activator (tPA),[2]; 6.7 μM,−0.11 log10
same,Significant log10 reduction vs nontreated controls: Tissue plasminogen activator (tPA),[2]; 20.0 μM,−0.12 log10
same,Significant log10 reduction vs nontreated controls: Secreted interleukin 10 (IL-10),[3],−0.21 log10
same,Significant log10 reduction vs nontreated controls: Macrophage colony-stimulating factor (M-CSF),[4]; 0.7 μM,−0.11 log10
same,Significant log10 reduction vs nontreated controls: Macrophage colony-stimulating factor (M-CSF),[4]; 2.2 μM,−0.07 log10
same,Significant log10 reduction vs nontreated controls: Secreted interleukin 17A (IL-17A),[5]; 2.2 μM,−0.25 log10
same,Significant log10 reduction vs nontreated controls: Secreted interleukin 17A (IL-17A),[5]; 20.0 μM,−0.20 log10
same,Significant log10 reduction vs nontreated controls: Tumor necrosis factor alpha (TNFα),[5]; 20.0 μM,−0.12 log10
same,Significant log10 reduction vs nontreated controls: Secreted prostaglandin E2 (PGE2),[6]; 0.7 μM,−0.11 log10
same,Significant log10 reduction vs nontreated controls: Secreted prostaglandin E2 (PGE2),[6]; 2.2 μM,−0.08 log10
same,Significant log10 reduction vs nontreated controls: Secreted prostaglandin E2 (PGE2),[6]; 6.7 μM,−0.20 log10
same,Significant log10 reduction vs nontreated controls: CD40,[6]; 20.0 μM,−0.11 log10
same,Significant log10 reduction vs nontreated controls: CD40,[7]; 0.7 μM,−0.07 log10
same,Significant log10 reduction vs nontreated controls: CD40,[7]; 2.2 μM,−0.14 log10
same,Significant log10 reduction vs nontreated controls: CD40,[7]; 6.7 μM,−0.09 log10
same,Significant log10 reduction vs nontreated controls: CD40,[7]; 20.0 μM,−0.11 log10
CCCCCCC=CCCCCCCCCC(=O)O [10-heptadecanoate],Significantly reduced cell-based biomarkers relevant to: Allergy,[1]; Table 6,x
same,Significantly reduced cell-based biomarkers relevant to: Asthma,[1]; Table 6,x
same,Significantly reduced cell-based biomarkers relevant to: Autoimmunity,[1]; Table 6,x
same,Significantly reduced cell-based biomarkers relevant to: COPD,[1]; Table 6,x
same,Significantly reduced cell-based biomarkers relevant to: Hematological oncology,[1]; Table 6,x
same,Significantly reduced cell-based biomarkers relevant to: Pulmonary fibrosis,[1]; Table 6,x
same,Significantly reduced cell-based biomarkers relevant to: SLE,[1]; Table 6,x
same,Significantly reduced cell-based biomarkers relevant to: T-cell dependent B cell proliferation,[1]; Table 6,x
same,Significantly reduced cell-based biomarkers relevant to: Th2 type inflammation,[1]; Table 6,x
same,Significantly reduced cell-based biomarkers relevant to: Chronic inflammation,[1]; Table 7,x
same,Significantly reduced cell-based biomarkers relevant to: Psoriasis,[1]; Table 7,x
same,Significantly reduced cell-based biomarkers relevant to: Restenosis,[1]; Table 7,x
same,Significantly reduced cell-based biomarkers relevant to: Rheumatoid arthritis,[1]; Table 7,x
same,Significantly reduced cell-based biomarkers relevant to: Thl type inflammation,[1]; Table 7,x
same,Significantly reduced cell-based biomarkers relevant to: Fibrosis,[1]; Table 8,x
same,Significantly reduced cell-based biomarkers relevant to: Stromal biology in tumors,[1]; Table 8,x
same,Significantly reduced cell-based biomarkers relevant to: Vascular inflammation,[1]; Table 8,x
same,Significant log10 reduction vs nontreated controls: Serum amyloid A,[8],−0.13 log10
same,Significant log10 reduction vs nontreated controls: Macrophage colony-stimulating factor (M-CSF),[4]; 6.7 μM,−0.1 log10
same,Significant log10 reduction vs nontreated controls: Vascular cell adhesion molecule 1 (VCAM-1),[4]; 6.7 μM,−0.17 log10
same,Significant log10 reduction vs nontreated controls: Secreted interleukin 2 (IL-2),[5]; 6.7 μM,−0.11 log10
same,Significant log10 reduction vs nontreated controls: Eotaxin 3 (CCL26),[9]; 2.2 μM,−0.10 log10
same,Significant log10 reduction vs nontreated controls: Eotaxin 3 (CCL26),[9]; 6.7 μM,−0.13 log10
same,Significant log10 reduction vs nontreated controls: Eotaxin 3 (CCL26),[9]; 20.0 μM,−0.31 log10
